In ChEMBL document CHEMBL1201862, “PubChem BioAssay data set” (2004):
The source made the active and inactive calls.

Columns and labels:
[1] = Vero E6 cell cytotoxicity, dose response, cytotoxicity control for non-replicating M. tuberculosis project, secondary assay (AID 492998); type: functional, VeroE6; settings: Vero C1008
[2] = molecular target: T1, Sentrin-specific protease 6 (Homo sapiens, UniProt Q9GZR1); type: functional;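 further: Luminescence-based dose-response confirmatory assay of SENP6 inhibition, following up an ultra-high-throughput screen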
T1 sequence (Q9GZR1 whole entry): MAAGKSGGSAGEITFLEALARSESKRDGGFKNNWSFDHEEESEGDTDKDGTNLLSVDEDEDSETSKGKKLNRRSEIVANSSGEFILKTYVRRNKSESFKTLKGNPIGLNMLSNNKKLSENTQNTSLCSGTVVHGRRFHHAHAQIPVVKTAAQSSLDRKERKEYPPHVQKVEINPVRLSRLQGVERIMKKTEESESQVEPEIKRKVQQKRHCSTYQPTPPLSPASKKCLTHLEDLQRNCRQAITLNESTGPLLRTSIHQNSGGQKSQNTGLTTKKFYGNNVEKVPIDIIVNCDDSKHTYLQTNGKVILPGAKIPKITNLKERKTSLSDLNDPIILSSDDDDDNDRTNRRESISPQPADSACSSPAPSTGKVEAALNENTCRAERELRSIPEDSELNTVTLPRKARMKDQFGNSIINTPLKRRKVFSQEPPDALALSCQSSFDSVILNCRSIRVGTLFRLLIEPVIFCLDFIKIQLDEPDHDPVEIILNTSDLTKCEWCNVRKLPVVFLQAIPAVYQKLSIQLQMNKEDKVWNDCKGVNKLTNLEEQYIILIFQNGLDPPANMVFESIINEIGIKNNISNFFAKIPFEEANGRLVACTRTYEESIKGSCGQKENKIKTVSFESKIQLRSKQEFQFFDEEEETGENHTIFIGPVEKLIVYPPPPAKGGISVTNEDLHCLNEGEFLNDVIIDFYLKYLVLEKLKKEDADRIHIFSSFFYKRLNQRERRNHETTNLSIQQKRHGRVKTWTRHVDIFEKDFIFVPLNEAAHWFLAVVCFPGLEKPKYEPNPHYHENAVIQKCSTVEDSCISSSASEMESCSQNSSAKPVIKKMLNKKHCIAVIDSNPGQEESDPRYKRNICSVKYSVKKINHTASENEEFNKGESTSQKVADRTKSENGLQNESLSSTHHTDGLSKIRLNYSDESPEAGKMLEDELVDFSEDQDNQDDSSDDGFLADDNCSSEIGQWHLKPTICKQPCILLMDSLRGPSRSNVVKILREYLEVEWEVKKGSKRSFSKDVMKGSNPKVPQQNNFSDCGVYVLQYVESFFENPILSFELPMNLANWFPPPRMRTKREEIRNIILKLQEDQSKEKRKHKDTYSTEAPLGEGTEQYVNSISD

[3] = molecular target: T2, Sentrin-specific protease 7 (Homo sapiens, UniProt Q9BQF6); type: functional;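 further: Luminescence-based dose-response confirmation of ultra-high-throughput screening hits, measuring inhibition of SENP7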
T2 sequence (Q9BQF6 whole entry): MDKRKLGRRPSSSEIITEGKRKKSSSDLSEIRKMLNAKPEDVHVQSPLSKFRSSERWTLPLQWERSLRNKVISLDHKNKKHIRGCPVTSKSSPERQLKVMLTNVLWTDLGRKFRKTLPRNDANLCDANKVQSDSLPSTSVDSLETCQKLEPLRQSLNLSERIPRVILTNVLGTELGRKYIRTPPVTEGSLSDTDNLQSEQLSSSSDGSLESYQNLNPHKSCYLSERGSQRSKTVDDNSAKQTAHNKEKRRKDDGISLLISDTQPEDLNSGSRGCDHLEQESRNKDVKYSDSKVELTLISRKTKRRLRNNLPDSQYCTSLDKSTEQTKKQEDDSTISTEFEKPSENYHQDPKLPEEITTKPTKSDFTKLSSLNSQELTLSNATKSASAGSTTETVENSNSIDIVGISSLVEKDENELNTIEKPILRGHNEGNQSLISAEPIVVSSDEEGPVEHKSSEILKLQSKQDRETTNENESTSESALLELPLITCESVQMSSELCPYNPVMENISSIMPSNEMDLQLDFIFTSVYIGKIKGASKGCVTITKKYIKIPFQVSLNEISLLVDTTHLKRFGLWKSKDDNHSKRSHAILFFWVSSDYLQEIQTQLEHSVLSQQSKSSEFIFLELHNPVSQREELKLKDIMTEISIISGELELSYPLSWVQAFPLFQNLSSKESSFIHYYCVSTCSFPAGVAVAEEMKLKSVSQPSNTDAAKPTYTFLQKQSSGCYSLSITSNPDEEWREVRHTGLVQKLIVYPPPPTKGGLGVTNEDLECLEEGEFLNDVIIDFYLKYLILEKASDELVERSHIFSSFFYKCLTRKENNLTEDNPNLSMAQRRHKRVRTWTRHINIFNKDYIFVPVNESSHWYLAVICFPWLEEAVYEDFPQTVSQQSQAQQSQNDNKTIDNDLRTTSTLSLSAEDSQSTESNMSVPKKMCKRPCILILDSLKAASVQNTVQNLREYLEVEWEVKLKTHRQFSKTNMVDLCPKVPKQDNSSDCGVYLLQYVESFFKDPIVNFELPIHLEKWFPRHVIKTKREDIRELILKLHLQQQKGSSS

[4] = tested on: INS1; experiment: INS-1E survival protection against cytokine death – cell-based, luminescence, retest, dose response (AID 449756); type: functional; settings: Rattus norvegicus;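 further: cell death triggered by IL-1 beta plus TNF-alpha plus IFN-gamma mixture; protective hits raise ATP signal compared with cytokine alone wells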
[5] = molecular target: T3, Sentrin-specific protease 8 (Homo sapiens, UniProt Q96LD8); type: functional;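 further: luminescence read-out of SENP8 inhibition, dose-response confirmation following an ultra-high-throughput screen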
T3 sequence (Q96LD8 whole entry): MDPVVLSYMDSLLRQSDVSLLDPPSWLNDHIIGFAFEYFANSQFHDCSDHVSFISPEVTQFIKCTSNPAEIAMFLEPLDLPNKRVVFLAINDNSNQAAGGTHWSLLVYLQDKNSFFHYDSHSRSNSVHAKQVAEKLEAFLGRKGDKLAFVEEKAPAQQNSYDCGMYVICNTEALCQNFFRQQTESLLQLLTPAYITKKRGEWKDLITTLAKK

[6] = viability of HCT116 lacking mutant beta-catenin – cell-based, human colon tumor, dose response (AID 1045); type: functional;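 further: HCT116 colon tumor cells with beta catenin knocked out; cells exposed to compound for 60 hours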
[7] = viability of PTEN-deleted HCT116 cells – cell-based, HCT116 PTEN knockout, dose response (AID 1047); type: functional;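 further: HCT116 colon tumor cells with PTEN knocked out; cells exposed to compound for 60 hours before readout; potency for loss of cell viability measured by luminescence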
[8] = molecular target: T4, Caspase-3 (Homo sapiens, UniProt P42574); type: functional;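 further: Dose-response selectivity test against caspase-3 for candidate inhibitors of sentrin-specific proteases (SENPs)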
T4 sequence (P42574 whole entry): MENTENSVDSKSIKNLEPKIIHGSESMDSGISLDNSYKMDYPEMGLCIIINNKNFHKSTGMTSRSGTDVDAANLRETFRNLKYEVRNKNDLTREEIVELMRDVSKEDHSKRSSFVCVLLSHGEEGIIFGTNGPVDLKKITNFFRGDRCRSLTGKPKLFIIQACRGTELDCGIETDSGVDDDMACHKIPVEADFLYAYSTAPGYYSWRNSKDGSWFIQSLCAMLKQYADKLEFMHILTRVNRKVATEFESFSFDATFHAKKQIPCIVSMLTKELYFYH

[9] = THP-1 cell cytotoxicity, dose response, cytotoxicity control for non-replicating M. tuberculosis project (AID 489025); type: functional
[10] = molecular target: Prothrombin (Homo sapiens, UniProt P00734); experiment: Thrombin 1536 HTS Dose Response Confirmation. [Related pubchem assays: 1046 (Thrombin 1536 HTS; hits were confirmed in this assay)]; type: functional
[11] = microbe, parasite or virus in culture; type: functional; settings: Mycobacterium tuberculosis
[12] = MIN6 cell viability loss – mouse insulinoma, cytotoxicity control, dose response (AID 2122); type: functional;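 further: confirmatory high-throughput counterscreen run to flag cytotoxic compounds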
[13] = molecular target: Cytochrome P450 3A4 (Homo sapiens, UniProt P08684);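 further: CYP3A4 tested as one member of a cytochrome P450 panel screen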
[14] = molecular target: Cytochrome P450 2C19 (Homo sapiens, UniProt P33261); experiment: Cytochrome panel assay with activity outcomes. Panel member name: p450-cyp2c19 Compounds with AC50 equal or less than 10 uM are considered active; type: functional; settings: read-out: AC50
[15] = Trypanosoma cruzi growth suppression in host cells – NIH3T3 host cells, beta-gal luminescence, confirmation (AID 2044); type: functional, cell-based;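 further: intracellular parasites grown in NIH/3T3 mouse fibroblasts as host cells; luminescent beta-galactosidase reporter signal from transgenic T. cruzi replicating inside host cells; inhibitors lower the luminescence signal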
[16] = molecular target: Cytochrome P450 2C9 (Homo sapiens, UniProt P11712)
[17] = decrease of insulin promoter-GFP reporter – imaging, high-content screening, mouse beta cells (AID 1628); type: functional; settings: MIN6
[18] = molecular target: T5, Cytochrome P450 1A2 (Homo sapiens, UniProt P05177);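 further: PubChem cytochrome P450 panel assay, CYP1A2 panel member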
T5 sequence (P05177 whole entry): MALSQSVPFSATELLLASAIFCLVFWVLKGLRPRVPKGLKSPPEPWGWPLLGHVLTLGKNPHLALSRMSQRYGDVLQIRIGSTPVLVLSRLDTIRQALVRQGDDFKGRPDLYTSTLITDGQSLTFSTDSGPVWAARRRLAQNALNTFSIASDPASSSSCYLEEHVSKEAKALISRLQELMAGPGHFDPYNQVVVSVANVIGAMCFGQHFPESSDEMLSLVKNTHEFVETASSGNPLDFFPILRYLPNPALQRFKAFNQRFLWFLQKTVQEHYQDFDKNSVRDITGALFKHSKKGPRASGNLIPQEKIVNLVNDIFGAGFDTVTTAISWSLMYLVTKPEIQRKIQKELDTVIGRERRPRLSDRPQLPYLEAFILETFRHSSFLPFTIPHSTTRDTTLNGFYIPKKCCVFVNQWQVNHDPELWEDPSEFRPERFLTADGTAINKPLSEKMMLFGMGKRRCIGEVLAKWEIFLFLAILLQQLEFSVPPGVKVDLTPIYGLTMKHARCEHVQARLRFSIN

[19] = NIH3T3 cell viability loss – ATP luminescence, mouse fibroblasts, counter-screen, dose response (AID 2010); type: functional, cell-based;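 further: cells exposed to compound for about 90 hours before reading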
[20] = molecular target: T6, Estrogen receptor beta (Homo sapiens, UniProt Q92731);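 further: recombinant ER-beta bound to coactivator SRC1 peptide in presence of estradiol agonist; inhibitors block coactivator peptide binding and lower the FRET signal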
[21] = molecular target: T6, Estrogen receptor beta; experiment: blockers of SRC-3 recruitment to ERβ – biochemical, ELISA, streptavidin-HRP readout, orthogonal assay, confirmation (AID 1060)
[22] = Luminescence Cell-Based Dose Retest to Confirm Inhibitors of Cancer Stem Cells. [Related pubchem assays (depositor defined):AID2717, AID2721]; type: functional; settings: Homo sapiens
[23] = tested on: Vero; experiment: cells; type: functional; settings: Chlorocebus sabaeus
[24] = tested on: Vero; experiment: cells; type: functional, cell-based; settings: Chlorocebus sabaeus
[25] = molecular target: T7, Protein skinhead-1 (Caenorhabditis elegans, UniProt P34707); type: functional
T7 sequence (P34707 whole entry): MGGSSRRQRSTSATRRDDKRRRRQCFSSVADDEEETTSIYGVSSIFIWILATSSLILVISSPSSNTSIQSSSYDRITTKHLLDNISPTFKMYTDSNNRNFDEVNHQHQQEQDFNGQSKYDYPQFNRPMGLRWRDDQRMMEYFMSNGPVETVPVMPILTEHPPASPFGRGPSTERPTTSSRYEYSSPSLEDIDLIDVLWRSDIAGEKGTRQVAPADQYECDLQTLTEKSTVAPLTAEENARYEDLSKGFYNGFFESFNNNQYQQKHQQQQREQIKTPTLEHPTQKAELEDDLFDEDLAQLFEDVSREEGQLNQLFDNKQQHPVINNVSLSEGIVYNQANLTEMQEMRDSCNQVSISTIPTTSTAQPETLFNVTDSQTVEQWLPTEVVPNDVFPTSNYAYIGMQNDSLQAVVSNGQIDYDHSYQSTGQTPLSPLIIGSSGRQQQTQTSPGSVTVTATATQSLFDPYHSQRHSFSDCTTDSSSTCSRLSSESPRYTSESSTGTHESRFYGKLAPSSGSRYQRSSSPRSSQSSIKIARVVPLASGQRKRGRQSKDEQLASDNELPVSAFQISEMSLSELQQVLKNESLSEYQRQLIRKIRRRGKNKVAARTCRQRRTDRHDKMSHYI

[26] = molecular target: Glucose-6-phosphate 1-dehydrogenase (Homo sapiens, UniProt P11413); experiment: inhibition of Homo sapiens G6PD, dose series – biochemical, fluorescence, selectivity assay for P. falciparum G6PD inhibitor project, dose response (AID 504792); type: functional
[27] = molecular target: Induced myeloid leukemia cell differentiation protein Mcl-1 (Homo sapiens, UniProt Q07820); type: functional
Sequence of Induced myeloid leukemia cell differentiation protein Mcl-1 (Q07820 whole entry): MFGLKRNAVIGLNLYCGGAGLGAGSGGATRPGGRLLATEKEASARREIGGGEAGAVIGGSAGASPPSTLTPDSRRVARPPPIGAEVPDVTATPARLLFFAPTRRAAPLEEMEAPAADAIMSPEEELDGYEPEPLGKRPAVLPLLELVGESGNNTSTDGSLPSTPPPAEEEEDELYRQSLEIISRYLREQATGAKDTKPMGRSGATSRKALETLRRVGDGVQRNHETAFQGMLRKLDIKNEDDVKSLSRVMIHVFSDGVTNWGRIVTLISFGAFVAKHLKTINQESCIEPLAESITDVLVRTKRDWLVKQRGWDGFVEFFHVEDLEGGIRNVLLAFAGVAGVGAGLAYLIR

Sequence of Glucose-6-phosphate 1-dehydrogenase (P11413 whole entry): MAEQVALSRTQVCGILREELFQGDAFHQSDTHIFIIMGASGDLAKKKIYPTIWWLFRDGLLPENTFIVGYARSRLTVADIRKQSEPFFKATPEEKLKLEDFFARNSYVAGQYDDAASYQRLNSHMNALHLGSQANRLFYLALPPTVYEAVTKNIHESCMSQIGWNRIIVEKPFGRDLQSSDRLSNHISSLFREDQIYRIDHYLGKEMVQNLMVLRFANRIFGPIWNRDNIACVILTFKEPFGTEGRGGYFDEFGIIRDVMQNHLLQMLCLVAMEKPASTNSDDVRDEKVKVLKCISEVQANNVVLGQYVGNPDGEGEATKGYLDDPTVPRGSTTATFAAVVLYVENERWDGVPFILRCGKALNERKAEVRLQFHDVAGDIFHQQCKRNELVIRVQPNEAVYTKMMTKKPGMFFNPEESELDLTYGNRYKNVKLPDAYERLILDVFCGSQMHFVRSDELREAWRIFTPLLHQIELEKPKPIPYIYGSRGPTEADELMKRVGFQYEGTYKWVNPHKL
T6 sequence (Q92731 whole entry): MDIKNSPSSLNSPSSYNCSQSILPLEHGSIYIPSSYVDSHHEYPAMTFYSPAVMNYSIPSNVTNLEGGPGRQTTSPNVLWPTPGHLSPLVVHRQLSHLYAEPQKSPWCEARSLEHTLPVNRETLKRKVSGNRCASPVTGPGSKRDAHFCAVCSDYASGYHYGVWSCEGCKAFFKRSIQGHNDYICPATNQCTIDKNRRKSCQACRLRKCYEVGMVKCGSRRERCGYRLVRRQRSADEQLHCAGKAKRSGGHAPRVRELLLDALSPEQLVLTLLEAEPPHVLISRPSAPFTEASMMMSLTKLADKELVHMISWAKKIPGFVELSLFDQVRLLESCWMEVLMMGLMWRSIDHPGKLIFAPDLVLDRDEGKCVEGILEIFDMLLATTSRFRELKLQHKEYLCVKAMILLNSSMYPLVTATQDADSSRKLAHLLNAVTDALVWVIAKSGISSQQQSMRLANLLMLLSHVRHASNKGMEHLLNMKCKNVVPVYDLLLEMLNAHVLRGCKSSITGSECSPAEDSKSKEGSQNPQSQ
Sequence of Cytochrome P450 3A4 (P08684 whole entry): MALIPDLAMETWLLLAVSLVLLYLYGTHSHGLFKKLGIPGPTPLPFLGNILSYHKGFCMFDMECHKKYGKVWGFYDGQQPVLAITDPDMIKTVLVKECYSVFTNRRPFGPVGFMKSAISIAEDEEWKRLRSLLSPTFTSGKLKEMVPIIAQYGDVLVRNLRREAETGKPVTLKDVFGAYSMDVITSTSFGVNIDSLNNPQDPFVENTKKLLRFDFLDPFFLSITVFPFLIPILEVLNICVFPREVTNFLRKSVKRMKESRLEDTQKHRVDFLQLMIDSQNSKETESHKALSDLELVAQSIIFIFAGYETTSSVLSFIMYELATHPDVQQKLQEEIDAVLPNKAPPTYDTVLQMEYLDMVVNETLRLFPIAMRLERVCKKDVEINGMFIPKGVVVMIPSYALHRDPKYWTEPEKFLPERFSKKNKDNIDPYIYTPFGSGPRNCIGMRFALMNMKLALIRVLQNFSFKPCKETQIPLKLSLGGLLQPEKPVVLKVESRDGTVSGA
Sequence of Cytochrome P450 2C19 (P33261 whole entry): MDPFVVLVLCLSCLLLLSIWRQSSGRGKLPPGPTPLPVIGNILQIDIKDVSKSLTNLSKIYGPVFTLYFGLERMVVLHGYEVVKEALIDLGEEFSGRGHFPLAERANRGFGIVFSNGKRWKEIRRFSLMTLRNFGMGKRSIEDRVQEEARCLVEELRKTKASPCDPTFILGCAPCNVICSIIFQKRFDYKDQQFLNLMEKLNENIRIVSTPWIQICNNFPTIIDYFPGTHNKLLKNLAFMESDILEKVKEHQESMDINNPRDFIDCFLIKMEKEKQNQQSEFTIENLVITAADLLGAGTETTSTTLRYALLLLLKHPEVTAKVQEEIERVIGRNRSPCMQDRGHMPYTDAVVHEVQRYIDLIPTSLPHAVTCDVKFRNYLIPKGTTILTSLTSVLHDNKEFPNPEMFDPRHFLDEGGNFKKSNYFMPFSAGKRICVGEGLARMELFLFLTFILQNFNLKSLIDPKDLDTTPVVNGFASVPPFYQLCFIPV
Sequence of Cytochrome P450 2C9 (P11712 whole entry): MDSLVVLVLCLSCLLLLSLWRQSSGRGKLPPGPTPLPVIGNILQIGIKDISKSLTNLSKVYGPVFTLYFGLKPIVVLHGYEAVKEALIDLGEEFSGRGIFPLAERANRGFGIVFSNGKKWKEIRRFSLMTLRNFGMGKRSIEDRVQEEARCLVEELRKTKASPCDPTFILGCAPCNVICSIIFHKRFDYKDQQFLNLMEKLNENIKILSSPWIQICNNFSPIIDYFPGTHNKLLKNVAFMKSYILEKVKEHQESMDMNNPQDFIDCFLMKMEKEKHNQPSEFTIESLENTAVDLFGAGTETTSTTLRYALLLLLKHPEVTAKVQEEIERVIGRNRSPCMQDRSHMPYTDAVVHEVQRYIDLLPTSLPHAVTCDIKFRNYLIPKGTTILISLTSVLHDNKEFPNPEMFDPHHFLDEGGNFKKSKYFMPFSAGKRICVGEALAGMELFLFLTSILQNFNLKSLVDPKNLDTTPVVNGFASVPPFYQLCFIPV

SMILES: O=[N+]([O-])c1ccc(-c2nc3cc([N+](=O)[O-])ccc3[nH]2)cc1
- CC50 [1]: 19.9 µM (active)
- IC50 [2]: 27.4 µM (active)
- IC50 [3]: 17 µM (active)
- AC50 [4]: 3.9 µM (active)
- IC50 [5]: 24.8 µM (active)
- EC50 [6]: 13.2 µM (active)
- EC50 [7]: 12 µM (active)
- IC50 [8]: 27.2 µM (active)
- CC50 [9]: 29.4 µM (active)

SMILES: COc1ccc(-c2c[n+]3c4n2CCCCC4=C(c2ccccc2)C3)cc1
- IC50 [10]: > 50 µM (not active)
- CC50 [11]: 28.1 µM (active)
- IC50 [12]: 2.76 µM (active)
- AC50 [13]: 3.16 µM (inconclusive)
- AC50 [14]: 3.55 µM (inconclusive)
- EC50 [15]: 0.169 µM (active)
- AC50 [16]: 0.0316 µM (inconclusive)
- IC50 [17]: > 16 µM (inactive)
- AC50 [18]: 28.2 µM (inconclusive)
- EC50 [19]: > 60 µM (not active)

SMILES: N=c1c(C(=O)NCc2ccco2)cc2c(=O)n3ccccc3nc2n1CCc1ccccc1
- IC50 [20]: > 50 µM (not active)
- IC50 [12]: 12.4 µM (inactive)
- IC50 [17]: 0.861 µM (active)
- IC50 [21]: > 50 µM (not active)

SMILES: COc1cc(/C=C/C(=O)c2ccc(NS(=O)(=O)c3ccc(C)cc3)cc2)cc(OC)c1O
- AC50 [22]: 2.27 µM (active)
- CC50 [23]: 14.5 µM (active)
- IC50 [24]: > 25 µM (active)

SMILES: Cc1ccc(OCCCCn2cnc3ccccc32)c(C)c1
- EC50 [6]: 41.2 µM (active)
- EC50 [7]: 70.8 µM (active)
- IC50 [12]: 1.76 µM (active)
- IC50 [17]: 2.29 µM (active)
- IC50 [25]: > 100 µM (inactive)

SMILES: Cc1ccc(/C=C2\C(=O)NC(=S)N(c3ccccc3F)C2=O)s1
- IC50 [26]: > 80 µM (inactive)
- IC50 [27]: 4.91 µM (active)

SMILES: Cc1ccccc1OCC(=O)N/N=C/c1ccc(Sc2nc3ccccc3s2)o1
- IC50 [26]: > 80 µM (inactive)

SMILES: Cc1cc(C)nc(N=C(N)Nc2ccc(OCc3ccccc3)cc2)n1
- IC50 [12]: 1.22 µM (active)
- IC50 [17]: 0.988 µM (active)
